The values below are quoted from earlier work in patent US20260335309A1, “METHODS OF TREATING UVEAL MELANOMA” (IDEAYA BIOSCIENCES, INC., priority 2022, published 2026).

This data set has as its system uveal melanoma cells harboring GNAQ mutations. As to conditions: by targeting PKC/ERK1/2 and PKC/NF-xB pathways; X. Wu et al., Mol. Cancer Ther. 2012.

Consider `CN1CCN(c2nc(C3=C(c4c[nH]c5ccccc45)C(=O)NC3=O)c3ccccc3n2)CC1` [sotrastaurin], for which the “inhibition of growth of uveal melanoma cells harboring GNAQ mutations” value is listed as “selectively inhibit the growth of uveal melanoma cells harboring GNAQ mutations”.
